Experiment: xn = mol fraction of the nth substance listed
Conditions: Gas; for viscosity: Oscillating disk viscometry; for mass density: Pycnometric method

CC(F)(F)Cl [1-chloro-1,1-difluoroethane] + FC(F)Cl
Conditions | mass density [kg/m3] | viscosity [mPa·s]
298.15 K, 101.5 kPa, x2 = 0.5169 | 3.896 | 0.01164
298.15 K, 101.7 kPa, x2 = 0.7502 | 3.754 | 0.01219
298.15 K, 101.8 kPa, x2 = 0.2615 | 4.07 | 0.01109
298.15 K, 177.1 kPa, x2 = 0.5169 | 6.906 | 0.01163
298.15 K, 198 kPa, x2 = 0.7502 | 7.44 | 0.01217
298.15 K, 205.6 kPa, x2 = 0.2615 | 8.45 | 0.01104
298.15 K, 248.7 kPa, x2 = 0.5169 | 9.867 | 0.0116
298.15 K, 291.6 kPa, x2 = 0.7502 | 11.16 | 0.01212
298.15 K, 299.2 kPa, x2 = 0.2615 | 12.59 | 0.01102
298.15 K, 323.9 kPa, x2 = 0.5169 | 13.12 | 0.01159
298.15 K, 357.3 kPa, x2 = 0.2615 | 15.25 | 0.01103
298.15 K, 384.8 kPa, x2 = 0.7502 | 15.02 | 0.01212
298.15 K, 391.5 kPa, x2 = 0.5169 | 16.21 | 0.01158
298.15 K, 406.4 kPa, x2 = 0.2615 | 17.6 | 0.011
298.15 K, 453.1 kPa, x2 = 0.5169 | 19.06 | 0.01157
298.15 K, 477.3 kPa, x2 = 0.7502 | 18.96 | 0.0121
298.15 K, 571.3 kPa, x2 = 0.7502 | 23.23 | 0.01209
323.15 K, 101.8 kPa, x2 = 0.2615 | 3.732 | 0.01206
323.15 K, 102.2 kPa, x2 = 0.7502 | 3.468 | 0.0132
323.15 K, 102.4 kPa, x2 = 0.2615 | 3.755 | 0.01207
323.15 K, 103 kPa, x2 = 0.5169 | 3.663 | 0.01262
323.15 K, 190 kPa, x2 = 0.5169 | 6.762 | 0.01261
323.15 K, 199 kPa, x2 = 0.7502 | 6.842 | 0.0132
323.15 K, 200 kPa, x2 = 0.2615 | 7.459 | 0.01203
323.15 K, 276.2 kPa, x2 = 0.5169 | 10.03 | 0.01259
323.15 K, 297.3 kPa, x2 = 0.7502 | 10.36 | 0.01317
323.15 K, 299.4 kPa, x2 = 0.2615 | 11.38 | 0.01201
323.15 K, 373.4 kPa, x2 = 0.5169 | 13.8 | 0.01259
323.15 K, 396.6 kPa, x2 = 0.2615 | 15.36 | 0.012
323.15 K, 398.7 kPa, x2 = 0.7502 | 14.09 | 0.01318
323.15 K, 473.2 kPa, x2 = 0.5169 | 17.99 | 0.01258
323.15 K, 492.9 kPa, x2 = 0.2615 | 19.48 | 0.01199
323.15 K, 510 kPa, x2 = 0.7502 | 18.34 | 0.0132
323.15 K, 575.5 kPa, x2 = 0.5169 | 22.07 | 0.01257
323.15 K, 593.3 kPa, x2 = 0.2615 | 23.99 | 0.01199
323.15 K, 618.1 kPa, x2 = 0.7502 | 22.66 | 0.0132
323.15 K, 670.6 kPa, x2 = 0.5169 | 26.3 | 0.01258
323.15 K, 687 kPa, x2 = 0.2615 | 28.43 | 0.01202
323.15 K, 724.7 kPa, x2 = 0.7502 | 26.96 | 0.01318
323.15 K, 771 kPa, x2 = 0.5169 | 30.74 | 0.01259
323.15 K, 793.7 kPa, x2 = 0.2615 | 33.76 | 0.01211
323.15 K, 828.4 kPa, x2 = 0.7502 | 31.41 | 0.0132
323.15 K, 867.1 kPa, x2 = 0.5169 | 35.23 | 0.0126
323.15 K, 937.9 kPa, x2 = 0.7502 | 36.25 | 0.01322
348.15 K, 101.4 kPa, x2 = 0.5169 | 3.305 | 0.01354
348.15 K, 101.6 kPa, x2 = 0.7502 | 3.189 | 0.01427
348.15 K, 102.1 kPa, x2 = 0.2615 | 3.463 | 0.01295
348.15 K, 198.6 kPa, x2 = 0.5169 | 6.548 | 0.01355
348.15 K, 199 kPa, x2 = 0.2615 | 6.847 | 0.01294
348.15 K, 200.7 kPa, x2 = 0.7502 | 6.368 | 0.01423
348.15 K, 296.9 kPa, x2 = 0.2615 | 10.36 | 0.01293
348.15 K, 344.3 kPa, x2 = 0.7502 | 11.09 | 0.01422
348.15 K, 345.4 kPa, x2 = 0.5169 | 11.61 | 0.01355
348.15 K, 446.2 kPa, x2 = 0.2615 | 15.92 | 0.01294
348.15 K, 490.8 kPa, x2 = 0.5169 | 16.98 | 0.01355
348.15 K, 490.8 kPa, x2 = 0.7502 | 16.07 | 0.01424
348.15 K, 590.8 kPa, x2 = 0.2615 | 21.56 | 0.01297
348.15 K, 637.2 kPa, x2 = 0.5169 | 22.25 | 0.01354
348.15 K, 638.2 kPa, x2 = 0.7502 | 21.43 | 0.01423
348.15 K, 736.9 kPa, x2 = 0.2615 | 27.57 | 0.01297
348.15 K, 781.7 kPa, x2 = 0.5169 | 27.87 | 0.01358
348.15 K, 782.5 kPa, x2 = 0.7502 | 26.5 | 0.01425
348.15 K, 887.3 kPa, x2 = 0.2615 | 34.14 | 0.01301
348.15 K, 925.6 kPa, x2 = 0.7502 | 31.97 | 0.01428
348.15 K, 930.2 kPa, x2 = 0.5169 | 33.93 | 0.01365
348.15 K, 1036 kPa, x2 = 0.2615 | 40.96 | 0.01302
348.15 K, 1077 kPa, x2 = 0.5169 | 40.31 | 0.01365
348.15 K, 1090 kPa, x2 = 0.7502 | 38.36 | 0.0143
348.15 K, 1182 kPa, x2 = 0.2615 | 48.22 | 0.01307
348.15 K, 1240 kPa, x2 = 0.7502 | 44.53 | 0.01438
348.15 K, 1262 kPa, x2 = 0.5169 | 48.67 | 0.0137
348.15 K, 1334 kPa, x2 = 0.2615 | 56.48 | 0.01312
348.15 K, 1392 kPa, x2 = 0.7502 | 51.21 | 0.01443
348.15 K, 1408 kPa, x2 = 0.5169 | 56 | 0.01377
348.15 K, 1489 kPa, x2 = 0.2615 | 65.73 | 0.01325
348.15 K, 1541 kPa, x2 = 0.7502 | 58.1 | 0.0145
348.15 K, 1552 kPa, x2 = 0.5169 | 63.84 | 0.01386
348.15 K, 1683 kPa, x2 = 0.7502 | 64.7 | 0.01457
373.15 K, 101.5 kPa, x2 = 0.5169 | 3.079 | 0.01451
373.15 K, 102.1 kPa, x2 = 0.7502 | 2.984 | 0.01518
373.15 K, 102.2 kPa, x2 = 0.2615 | 3.224 | 0.01377
373.15 K, 245.8 kPa, x2 = 0.7502 | 7.266 | 0.01517
373.15 K, 294.3 kPa, x2 = 0.5169 | 9.101 | 0.01449
373.15 K, 298.2 kPa, x2 = 0.2615 | 9.612 | 0.0138
373.15 K, 390.1 kPa, x2 = 0.7502 | 11.68 | 0.0152
373.15 K, 490 kPa, x2 = 0.5169 | 15.46 | 0.01452
373.15 K, 493.6 kPa, x2 = 0.2615 | 16.27 | 0.01381
373.15 K, 583.4 kPa, x2 = 0.7502 | 17.74 | 0.01521
373.15 K, 686.2 kPa, x2 = 0.5169 | 22.09 | 0.01454
373.15 K, 695.2 kPa, x2 = 0.2615 | 23.4 | 0.01381
373.15 K, 782.8 kPa, x2 = 0.7502 | 24.22 | 0.01526
373.15 K, 876.7 kPa, x2 = 0.2615 | 30.25 | 0.01387
373.15 K, 879 kPa, x2 = 0.5169 | 28.79 | 0.01458
373.15 K, 889.8 kPa, x2 = 0.2615 | 30.77 | 0.01388
373.15 K, 978.5 kPa, x2 = 0.7502 | 30.82 | 0.0153
373.15 K, 1080 kPa, x2 = 0.5169 | 36.34 | 0.01464
373.15 K, 1085 kPa, x2 = 0.2615 | 38.57 | 0.01394
373.15 K, 1173 kPa, x2 = 0.7502 | 37.6 | 0.01535
373.15 K, 1277 kPa, x2 = 0.5169 | 43.98 | 0.01476
373.15 K, 1281 kPa, x2 = 0.2615 | 46.94 | 0.01403
373.15 K, 1361 kPa, x2 = 0.7502 | 44.52 | 0.01542
373.15 K, 1472 kPa, x2 = 0.5169 | 51.98 | 0.0148
373.15 K, 1483 kPa, x2 = 0.2615 | 56.2 | 0.01413
373.15 K, 1565 kPa, x2 = 0.7502 | 52.28 | 0.0155
373.15 K, 1666 kPa, x2 = 0.5169 | 60.38 | 0.01486
373.15 K, 1689 kPa, x2 = 0.2615 | 66.3 | 0.01426
373.15 K, 1760 kPa, x2 = 0.7502 | 60.2 | 0.01559
373.15 K, 1862 kPa, x2 = 0.5169 | 69.61 | 0.01502
373.15 K, 1897 kPa, x2 = 0.2615 | 77.72 | 0.01439
373.15 K, 1952 kPa, x2 = 0.7502 | 68.25 | 0.01568
373.15 K, 2065 kPa, x2 = 0.5169 | 80.02 | 0.01509
373.15 K, 2115 kPa, x2 = 0.2615 | 91.26 | 0.01461
373.15 K, 2190 kPa, x2 = 0.7502 | 79.1 | 0.01586
373.15 K, 2295 kPa, x2 = 0.5169 | 92.76 | 0.01537
373.15 K, 2299 kPa, x2 = 0.2615 | 104.3 | 0.01486
373.15 K, 2398 kPa, x2 = 0.7502 | 89.07 | 0.01602
373.15 K, 2448 kPa, x2 = 0.5169 | 102 | 0.01542
373.15 K, 2467 kPa, x2 = 0.2615 | 117.9 | 0.01516

Source: the NIST ThermoML archive (doi:10.1007/s10765-009-0579-1)
